Experimental data taken from the supplement of paper PMC4862054.

Legend:
Conditions in all cases: 72 h
[1] = tested on: MDA-MB-453
Outline: (§1)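 EC50 is the value from a fitted percent-inhibition dose-response curve, censored at the highest concentration, and rows with zero drug sensitivity score were not kept. The underlying assay seeded breast cancer cell lines in 20 µl onto 384-well plates pre-loaded with compound in 5 µl medium for 72 h. Viability was then read by CellTiter-Blue fluorescence at 560/590 nm after 2 h at 37 °C, with each plate normalised to vehicle and a positive kill control.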

[2] = tested on: HDQ-P1
Outline: as §1

[3] = tested on: CAL-51
Outline: as §1

[4] = tested on: CAL-85-1
Outline: as §1

[5] = tested on: DU-4475
Outline: as §1

| Compound | EC50, CellTiter-Blue viability [1] | EC50, CellTiter-Blue viability [2] | EC50, CellTiter-Blue viability [3] | EC50, CellTiter-Blue viability [4] | EC50, CellTiter-Blue viability [5] |
| --- | --- | --- | --- | --- | --- |
| COC(=O)c1ccc2c(c1)NC(=O)/C2=C(\Nc1ccc(N(C)C(=O)CN2CCN(C)CC2)cc1)c1ccccc1 [BIBF 1120] | 3180 nM | 5930 nM | 1400 nM | 6440 nM | 6940 nM |
| Nc1cc(C(F)(F)F)c(-c2cc(N3CCOCC3)nc(N3CCOCC3)n2)cn1 [BKM-120] | 532 nM | 1260 nM | 922 nM | 1310 nM | 2260 nM |
| O=C(/C=C/c1cccc(S(=O)(=O)Nc2ccccc2)c1)NO [Belinostat] | 125 nM | 488 nM | 1170 nM | 666 nM | 478 nM |
| O=C(Nc1ccncc1)C(=O)c1cn(Cc2ccc(Cl)cc2)c2ccccc12 [Indibulin] | 36.1 nM | 72.5 nM | 631 nM | 201 nM | 1530 nM |
| CCc1c2c(nc3ccc(OC(=O)N4CCC(N5CCCCC5)CC4)cc13)-c1cc3c(c(=O)n1C2)COC(=O)[C@]3(O)CC [Irinotecan] | 4750 nM | > 10000 nM | 2940 nM | 3510 nM | 2550 nM |

Continued, in another order:

| EC50, CellTiter-Blue viability [1] | Compound | EC50, CellTiter-Blue viability [2] | EC50, CellTiter-Blue viability [3] | EC50, CellTiter-Blue viability [4] | EC50, CellTiter-Blue viability [5] |
| --- | --- | --- | --- | --- | --- |
| 4.43 nM | Cc1[nH]c2ccccc2c1CCNCc1ccc(/C=C/C(=O)NO)cc1 [Panobinostat] | 35 nM | 49.7 nM | 23.8 nM | 18.2 nM |
| 0.59 nM | CO[C@H]1C[C@@H]2CC[C@@H](C)[C@@](O)(O2)C(=O)C(=O)N2CCCC[C@H]2C(=O)O[C@H]([C@H](C)C[C@@H]2CC[C@@H](OP(C)(C)=O)[C@H](OC)C2)CC(=O)[C@H](C)/C=C(\C)[C@@H](O)[C@@H](OC)C(=O)[C@H](C)C[C@H](C)/C=C/C=C/C=C/1C [Ridaforolimus] | 3.88 nM | 1.65 nM | 0.17 nM | 1.13 nM |
| 86.3 nM | CC(C)C[C@@H](C(=O)N[C@H](C(=O)OC1CCCC1)c1ccccc1)[C@H](O)C(=O)NO [Tosedostat] | 268 nM | 6030 nM | 2940 nM | 126 nM |
| 6.99 nM | COCC[n+]1c2c(n(Cc3cnccn3)c1C)C(=O)c1ccccc1C2=O [YM155] | 11.4 nM | 20.2 nM | 6.98 nM | 114 nM |
